# From article PMC12562567, “Comparative Efficacy of CK2 Inhibitors CX-4945 and SGC-CK2-2 on CK2 Signaling” (International Journal of Molecular Sciences, 2025)
# Where two headings read alike, the source gives them in different places.
# Columns and labels:
# phospho-Akt1 S129 [1] = test: Western blot of phospho-Akt1 S129 (CK2 substrate) in HeLa cells; type: cell-based, human; details: for IC50: Homo sapiens, read-out: IC50 pS129 AKT phosphorylation
# Source text: (§1) . These substrates were selected based on their different responses to kinase inhibition. S129Akt was described in 2015 as a specific CK2 substrate, and its phosphorylation is highly sensitive to CK2 inhibition showing a strong early reduction. On the contrary, S13-cdc37, described in 2004 as a CK2-specific substrate, requires higher inhibitor concentrations or longer exposure times to achieve a significant impact on its phosphorylation. The phosphorylation of both substrates is reduced in CK2-knockout cells. Moreover, to gain a more comprehensive view of CK2 substrate phosphorylation, we used a phosphoantibody developed against p-Ser/p-Thr containing a CK2 consensus sequence (pS/pTDXE motif).
# phospho-cdc37 S13 [2] = test: Western blot of phospho-cdc37 S13 (CK2 substrate) in HeLa cells; type: cell-based, human; details: 24 h
# Source text: as §1
# phospho-Akt1 S129 [3] = test: Western blot of phospho-Akt1 S129 (CK2 substrate) in MDA-MB-231 cells; type: cell-based; details: for IC50: Homo sapiens, read-out: IC50 pS129 AKT phosphorylation
# Source text: (§2) We repeated the same treatments using a different cell line, breast cancer MDA-MB-231. […] . Even though MDA-MB-231 was less responsive to the two CK2 inhibitors than HeLa cells, the overall outcome appeared similar. […] .
# phospho-cdc37 S13 [4] = test: Western blot of phospho-cdc37 S13 (CK2 substrate) in MDA-MB-231 cells; type: cell-based; details: Homo sapiens, read-out: IC50 pS13 cdc37 phosphorylation
# Source text: as §2
# HeLa cells = test: MTT cell viability assay, HeLa; type: cell-based, human
# Experimental: (§3) One hour before the end of the incubations, 10 μL of MTT solution (5 mg/mL in PBS) was added to each well. […] Plates were read at λ 540 nm absorbance, in a Titertek Multiskan Plus plate reader (Flow Laboratories, Sutton, UK).
# MDA-MB-231 cells = test: MTT cell viability assay, MDA-MB-231; type: cell-based; details: for Effect on cell viability (reduction): MDA cells, 2.5 µM
# Experimental: as §3
# CSNK2A1 = test system: CSNK2A1; parameters: method as in PMID 41883516; details: cited from earlier work
# PARP-1 [5] = test: PARP-1 degradation/cleavage by Western blot, HeLa; details: HeLa cells
# [6] = parameters: method as in PMID 37901516; details: 30 min of incubation; cited from earlier work
# [7] = cited from earlier work
# PARP-1 [8] = test: PARP-1 degradation/cleavage by Western blot, MDA-MB-231; type: cell-based; details: MDA-MB-231 cells
# [9] = parameters: method as in PMID 37077385; details: preliminary proliferation assays; cited from earlier work
# [10] = MDA-MB-231 cells, 24 h, densitometry of Western blot
compound,measurement,setting,value
O=C(O)c1ccc2c(c1)nc(Nc1cccc(Cl)c1)c1ccncc12 [CX-4945],Phosphorylation of Akt at Ser129,"phospho-Akt1 S129 [1]; HeLa cells, 2.5 µM (lowest concentration tested), 24 h",completely abolished
same,IC50,"phospho-Akt1 S129 [1]; HeLa cells, 24 h, densitometry of Western blot",0.7 µM
same,IC50,"phospho-cdc37 S13 [2]; Homo sapiens, HeLa cells, densitometry of Western blot, read-out: IC50 pS13 cdc37 phosphorylation",3 µM
same,IC50,phospho-Akt1 S129 [3]; [10],0.9 µM
same,IC50,phospho-cdc37 S13 [4]; [10],4.4 µM
same,Effect on cell viability (reduction),"HeLa cells; HeLa cells, 2.5 µM, 24 h, MTT",~ 20%
same,Effect on cell viability (reduction),"HeLa cells; HeLa cells, 2.5 µM, 48 h, MTT",~ 30%
same,Effect on cell viability (reduction),"MDA-MB-231 cells; 24 h, MTT",~ 5%
same,Effect on cell viability (reduction),"MDA-MB-231 cells; 48 h, MTT",~ 15%
same,Significantly downregulated phosphopeptides determined to be CSNK2A1 dependent,CSNK2A1; after 4 h of treatment,15%
same,Significantly downregulated phosphopeptides determined to be CSNK2A1 dependent,CSNK2A1; after 24 h of treatment,5%
same,Concentration at which PARP-1 degradation (reduction in total PARP-1) is visible,PARP-1 [5]; 24 h,10 µM
same,Concentration at which PARP-1 degradation (reduction in total PARP-1) is visible,PARP-1 [5]; 48 h,5 µM
same,Concentration at which the 89 KDa PARP fragment is detected,PARP-1 [5]; after 48 h (first mention (so in the source)),5 µM
same,Concentration at which the 89 KDa PARP fragment is detected,PARP-1 [5]; after 48 h (second mention),2.5 µM
CCC(=O)Nc1cc(Nc2cc(NC3CC3)n3ncc(C#N)c3n2)ccc1C [SGC-CK2-1],Significantly downregulated phosphopeptides determined to be CSNK2A1 dependent,CSNK2A1; after 4 h of treatment,55%
same,Significantly downregulated phosphopeptides determined to be CSNK2A1 dependent,CSNK2A1; after 24 h of treatment,55%
same,Compound degraded in vitro in mouse liver microsomes,[6],60%
same,Aqueous solubility,[7],moderate
O=C(O)c1ccc2c(c1)nc(NCc1ccccc1)c1ncncc12 [SGC-CK2-2],Concentration that nearly abolishes Akt S129 phosphorylation,"phospho-Akt1 S129 [1]; HeLa, 24 h treatment",2.5 µM
same,IC50,"phospho-Akt1 S129 [1]; HeLa, 24 h",2.2 µM
same,IC50,"phospho-cdc37 S13 [2]; Homo sapiens, HeLa, read-out: IC50 pS13 cdc37 phosphorylation, HeLa cells, 24 h, densitometry of Western blot",9 µM
same,IC50,"phospho-cdc37 S13 [2]; read-out: IC50 pS13 cdc37 phosphorylation, HeLa cells, densitometry of Western blot",9.9 µM
same,IC50,"phospho-Akt1 S129 [3]; MDA-MB-231, 24 h",1.3 µM
same,Concentration that nearly abolishes Akt S129 phosphorylation,"phospho-Akt1 S129 [3]; MDA, 24 h treatment",5 µM
same,IC50,"phospho-cdc37 S13 [4]; MDA-MB-231, 24 h",20.4 µM
same,Reduction in cell viability achieved,"HeLa cells; HeLa cells, 24 h, all concentrations tested (up to 40 µM), MTT",< 50%
same,Effect on cell viability,"HeLa cells; HeLa, 2.5 µM, 24 h treatment",no significant effect
same,Effect on cell viability,"MDA-MB-231 cells; MDA, 5 µM, 24 h treatment",no significant effect
same,Reduction in cell viability achieved,"MDA-MB-231 cells; MDA-MB-231 cells, 24 h, all concentrations tested (up to 40 µM), MTT",< 50%
same,Degradation of PARP-1,"PARP-1 [8]; 24 h, all concentrations tested",did not induce any degradation
same,Concentration giving significant PARP-1 degradation,PARP-1 [8]; 48 h,≥ 20 µM
same,Aqueous kinetic solubility relative to SGC-CK2-1,[7],markedly improved
same,Antiproliferative effects,[9],lacks antiproliferative effects
same,Concentration at which PARP-1 degradation (reduction in total PARP-1) is visible,PARP-1 [5]; 24 h,40 µM
same,Concentration at which PARP-1 degradation (reduction in total PARP-1) is visible,PARP-1 [5]; 48 h,20 µM
